Experimental findings from patent publication US20240130994A1, “IONIC LIQUID FORMULATIONS FOR TREATING DIABETES” (i2O Therapeutics, Inc., priority 2020, published 2024) are described below.

Series [1] has as its system non-diabetic male Wistar rats. Put plainly: 30-day daily oral gavage safety study. The procedure: Adult non-diabetic male Wistar rats were dosed daily for 30 days via oral gavage with either 25 or 100 uL Choline-Cinnamic Acid 1:1.5. Two placebo groups received either 25 or 100 uL saline. Animals were observed daily for general health and weight recorded. On day 31, all animals were euthanized, and tissue, blood and plasma samples collected for analysis.

A short description of series [2]: Physical form of choline-based ionic liquids at room temperature. It counts as physicochemical. Here is the method:
Several ionic liquids comprising choline as a cation and various anions were synthesized. […] For anions not miscible with the aqueous choline bicarbonate solution, a co-solvent, such as ethanol, was added until a homogenous mixture formed. The mixture was stirred at room temperature until CO2 evolution ceased. Solvent was removed by rotary evaporation at 60° C. for 20 minutes, and each product was dried in a vacuum oven for 48 hours at 60° C.

The subject of series [3] is non-diabetic male Wistar rats. Put plainly: Blood glucose levels after intrajejunal injection in fasted non-diabetic rats. It counts as in vivo, rat. The conditions noted are these: for effect on blood glucose levels: 100 μL. Here is the method:
About 250 μL of blood was collected at regular intervals in order to determine the blood glucose level. The obtained values, plotted as mean percent change±standard error in blood glucose levels with respect to initial reading (n=3) versus time, are shown in FIG. 7.
About 250 μL of blood was collected at regular intervals in order to determine the blood glucose level. The obtained values, plotted as mean percent change±standard error in blood glucose levels with respect to initial reading (n=3) versus time, are shown in FIG. 8.
The obtained values, plotted as mean percent change±standard error in blood glucose levels with respect to initial reading (n=4) versus time, are shown in FIG. 9.

For series [4], the system named is non-diabetic male Wistar rats. Description: Glucose excretion in urine after intrajejunal injection. It counts as in vivo, rat. The conditions noted are these: intrajejunal injection at varying doses, urine from bladder 1.5 hours post-injection. The procedure:
At 1.5 hours post-injection, urine was sampled from the bladder to determine glucose concentration. The obtained glucose concentration values, plotted as percent change in blood glucose levels with respect to initial reading versus dose level and change in glucose concentration in the urine collected from the bladder versus dose level (n=1), are shown in FIG. 13.

Series [5] concerns Streptozocin-induced diabetic male Wistar rats. Put plainly: Blood glucose levels after oral liquid gavage in rat model of Type 1 diabetes. It counts as in vivo. To be noted: Type 1 diabetes model rats. Here is the method:
About 250 μL of blood was collected at regular intervals in order to determine the blood glucose level. The obtained values, plotted as mean percent change±standard error in blood glucose levels with respect to initial reading (n=4) versus time, are shown in FIG. 11.

The test system of series [6] is non-diabetic male Wistar rats. Description: Blood glucose levels after subcutaneous injection or liquid gavage in fasted non-diabetic rats. It counts as in vivo, rat. The procedure: A fasting control group was dosed orally with a saline solution. About 250 μL of blood was collected at regular intervals in order to determine the blood glucose level. The obtained values, plotted as mean percent change±standard error in blood glucose levels with respect to initial reading (n=4) versus time, are shown in FIG. 10. […] About 250 μL of blood was collected at regular intervals in order to determine the blood glucose level. The obtained values, plotted as mean percent change±standard error in blood glucose levels with respect to initial reading (n=4) versus time, are shown in FIG. 11.

In series [7] the test system is Streptozotocin-induced diabetic male Wistar rats. Description: Plasma insulin after administration in rat model of Type 1 diabetes. To be noted: subcutaneous injection, oral liquid gavage or jejunum catheter. It counts as in vivo. Here is the method: A fasting control group was not treated. About 250 μL of blood was collected at regular intervals in order to determine the insulin serum concentration.

For series [8] the following is noted: male, Wistar, rat, in vivo.
Protocol: (§1) Adult non-diabetic male Wistar rats were fasted overnight but given free access to water and subsequently dosed via intrajejunal injection with liraglutide and choline-hydrocinnamic acid. A fasting control group was dosed with a saline solution via intrajejunal injection. About 250 L of blood was collected at hourly intervals in order to determine the liraglutide serum concentration.
(§2) Adult non-diabetic male Wistar rats were fasted overnight but given free access to water and subsequently dosed via intrajejunal injection with liraglutide and one of various choline-based ionic liquids.
Series [9] can be described thus: Liraglutide serum concentration after intrajejunal injection of liraglutide with choline-based ionic liquid. The conditions noted are these: for Peak 5-Hour Liraglutide Concentration: non-diabetic rats.
Protocol: as §1, §2
[10] abbreviates: cation:anion 1:1, room temperature.
Where [11] appears, read: cation:anion 1:2, room temperature.
Setting [12] is: cation:anion 2:1, room temperature.

Entries after “also recorded” stand apart in the source; their conditions may differ. Like-named read-outs stand apart in the source and are kept apart here.

Take `O=C(O)C=Cc1ccccc1` [Cinnamic Acid]: in series [1] (25 or 100 uL daily oral gavage for 30 days, rats), the “plasma indicators of organ toxicity vs placebo” value is “not statistically significantly different”. Further, the “IHC staining of tight junction proteins Claudin-1 and Occludin of GI tract tissues vs placebo” value in series [1] (rat, in vivo, po) was “no difference”. Also, in series [1] (rat, in vivo, po), the “blood cell counts vs placebo” value is given as “not statistically significantly different”. In addition, the “histological examination (H&E) of organs and GI tract tissues vs saline placebo” value in [1] (rat, in vivo, po) was “no significant difference”. Moreover, the “Physical Form (Ratios Listed as Cation:Anion)” value in series [2] (setting [10]) is “Liquid at 1:1, 1:1.5, 1:2”; in series [2] (cation:anion 1:1.5, room temperature), “Liquid at 1:1, 1:1.5, 1:2”; in series [2] (setting [11]), “Liquid at 1:1, 1:1.5, 1:2”. Moreover, the “appearance and physical form” value in series [2] (room temperature, ratio as in label) is reported as “viscous yellow liquids”.
In the case of `CC(C)=CCCC(C)CC(=O)O` (centres unmarked) [Citronellic Acid], the “effect on blood glucose level” value in series [3] (10, 20, 50 and 100 μL) is listed as “dropped in a dose-dependent manner”. Besides, in [3] (50 μL dose), the “blood glucose levels, % of starting levels” value is “about 50%”. Also, the “effect on blood glucose levels” value was “pronounced decrease in blood glucose levels” in series [3]; “continued to drop” in series [5]; “reduced blood glucose levels; also recorded: dropped and recovered slowly with time” in series [6] (oral liquid gavage, listed as choline-citronellic acid); “reduced blood glucose levels” in [6] (subcutaneous injection). Also, in series [3] (100 μL dose), the “drop in blood glucose level from baseline” value is on record as “about 70%”. Moreover, the “glucose concentration in the urine” value in series [4] is on record as “increasing glucose concentration in the urine”. The “Physical Form (Ratios Listed as Cation:Anion)” value in series [2] (setting [10]) is “Liquid at 2:1, 1:1, 1:2”; in series [2] (setting [11]), “Liquid at 2:1, 1:1, 1:2”; in series [2] (setting [12]) it was “Liquid at 2:1, 1:1, 1:2”. Moreover, the “insulin secretion (plasma insulin concentration)” value in series [7] is “Stimulation of insulin secretion was observed”.
In the case of `CCCCC/C=C\C/C=C\CCCCCCCC(=O)O` [Linoleic Acid], in [8], the “Peak 5-Hour Liraglutide Concentration” value came out at 44 ng/mL and the “fold improvement of liraglutide concentration over choline-citronellic acid” value is listed as “about 10 fold”. For the same compound, the “Physical Form (Ratios Listed as Cation:Anion)” value in series [2] (setting [10]) is on record as “Solid”. Also, the “Physical Form (Ratios Listed as Cation:Anion)” value in series [2] (setting [11]) is “Liquid”.
On to `CCCCCCCC(=O)O` [Octanoic Acid], for which the “effect on blood glucose levels” value in [3] is on record as “neither choline-octanoic acid nor choline-octenoic acid decreased blood glucose levels”. For the same compound, the entries for the “Physical Form (Ratios Listed as Cation:Anion)” value in series [2] (setting [10]) and in series [2] (setting [11]) were “Liquid” and “Solid”, respectively.
In the case of `CCC(=O)O` [Propionic Acid], the “Physical Form (Ratios Listed as Cation:Anion)” value in series [2] (setting [10]) was “Liquid at 2:1, 1:1”; in series [2] (setting [12]) it was “Liquid at 2:1, 1:1”.
For `O=C1CC[C@@H](C(=O)O)N1` [Pyroglutamic Acid], the “Physical Form (Ratios Listed as Cation:Anion)” value is “Solid” in series [2] (setting [10]) and “Liquid” in series [2] (setting [11]).
Take `CC(=O)C(=O)O` [Pyruvic Acid]: the “Physical Form (Ratios Listed as Cation:Anion)” value is listed as “Liquid at 1:1, 1:2” in series [2] (setting [10]) and “Liquid at 1:1, 1:2” in series [2] (setting [11]).
On to `CCCCCC[C@@H](O)C/C=C\CCCCCCCC(=O)O` [Ricinoleic Acid], for which the “Physical Form (Ratios Listed as Cation:Anion)” value in series [2] (setting [10]) is reported as “Liquid at 1:1, 1:2”; in [2] (setting [11]) it was “Liquid at 1:1, 1:2”.
In the case of `C/C=C/C=C/C(=O)O` [Sorbic Acid], the “Physical Form (Ratios Listed as Cation:Anion)” value is reported as “Liquid at 1:1, 1:2” in series [2] (setting [10]) and “Liquid at 1:1, 1:2” in series [2] (setting [11]).
In the case of `O=C(O)CCC(=O)O` [Succinic Acid], the “Physical Form (Ratios Listed as Cation:Anion)” value in [2] (setting [10]) is “Liquid at 2:1, 1:1, 1:2”; in series [2] (setting [11]), “Liquid at 2:1, 1:1, 1:2”; in [2] (setting [12]), “Liquid at 2:1, 1:1, 1:2”.
With `COc1cc(C(=O)O)cc(OC)c1O` [Syringic Acid], the “Physical Form (Ratios Listed as Cation:Anion)” value in series [2] (setting [10]) is “Solid at 1:1”.
In the case of `CCCCCCC/C=C/C(=O)O` [Trans-2-Decenoic Acid], the “Physical Form (Ratios Listed as Cation:Anion)” value is reported as “Solid at 1:1, 1:2” in series [2] (setting [10]) and “Solid at 1:1, 1:2” in series [2] (setting [11]).
In the case of `CCC/C=C/C(=O)O` [Trans-2-Hexenoic Acid], the “Physical Form (Ratios Listed as Cation:Anion)” value is reported as “Liquid at 1:1, 1:2” in series [2] (setting [10]) and “Liquid at 1:1, 1:2” in [2] (setting [11]).
Consider `CCCCC/C=C/C(=O)O` [Trans-2-Octenoic Acid], for which the “Physical Form (Ratios Listed as Cation:Anion)” value in series [2] (setting [10]) is given as “Liquid at 1:1, 1:2”; in series [2] (setting [11]), “Liquid at 1:1, 1:2”.
In the case of `CCCC/C=C/CC(=O)O` [Trans-3-Octenoic Acid], the “Physical Form (Ratios Listed as Cation:Anion)” value in series [2] (setting [10]) is given as “Liquid at 1:1, 1:2”; in series [2] (setting [11]), “Liquid at 1:1, 1:2”.
Turning to `C=CCCCCCC(=O)O` [Trans-7-Octenoic Acid], the “Physical Form (Ratios Listed as Cation:Anion)” value in series [2] (setting [10]) is given as “Liquid at 1:1, 1:2”; in series [2] (setting [11]), “Liquid at 1:1, 1:2”.
`COc1cc(/C=C/C(=O)O)ccc1O` [Trans-Ferulic Acid]: the “Physical Form (Ratios Listed as Cation:Anion)” value in series [2] (setting [10]) was “Solid at 1:1”.
The same measure, in the same setting: the entry for `CCCCCCCCCCC(=O)O` [Undecanoic Acid] is “Solid at 1:1”; for `COc1cc(C(=O)O)ccc1O` [Vanillic Acid] it is “Solid at 1:1”.
For the compound `CC(C)=CCCC(C)CC(=O)O` (centres unmarked) [citronellic acid alone, citronellic acid, reference compound], the “blood glucose levels, % of starting levels” value in [3] (38 μL dose (acid content of 50 μL ionic liquid)) is reported as “about 30%”.
Take `Cc1ccc(S(=O)(=O)O)cc1` [p-Toluenesulfonic Acid]: the entries for the “Physical Form (Ratios Listed as Cation:Anion)” value in series [2] (setting [10]) and in series [2] (setting [11]) were “Solid” and “Liquid”, respectively.
For the compound `O=C(O)CCC(=O)C(=O)O` [α-Ketoglutaric Acid], the “Physical Form (Ratios Listed as Cation:Anion)” value in series [2] (setting [12]) is “Liquid at 2:1”.
In the case of Choline-Octenoic acid, the “effect on blood glucose levels” value in [3] is “neither choline-octanoic acid nor choline-octenoic acid decreased blood glucose levels”. Moreover, in series [9] (liraglutide with the ionic liquid, intrajejunal injection), the “Peak 5-Hour Liraglutide Concentration” value was determined as 201 ng/mL.
Regarding Dihydrobenzoic Acid, in series [2] (setting [10]), the “Physical Form (Ratios Listed as Cation:Anion)” value was “Solid at 1:1”.
As to “Hydrocinnamic Acid (3-Phenylpropionic Acid)”, the “Physical Form (Ratios Listed as Cation:Anion)” value in [2] (setting [10]) is “Liquid at 1:1, 1:2”; in series [2] (setting [11]), “Liquid at 1:1, 1:2”. Besides, the “blood concentration of liraglutide relative to those reported in the literature” value in series [9] (liraglutide with choline-hydrocinnamic acid vs Buckley et al.) is “approximately 4,400 fold”. Moreover, the “liraglutide serum concentration” value in [9] (liraglutide with choline-hydrocinnamic acid, intrajejunal injection, rats) is listed as “surprisingly high serum concentration”. For the same compound, the “Peak 5-Hour Liraglutide Concentration” value is 2086 ng/mL in series [9] (liraglutide with the ionic liquid, intrajejunal injection, listed as Choline-Hydrocinnamic acid) and “greater than 2000 ng/mL” in [9] (liraglutide with the ionic liquid, intrajejunal injection, listed as choline-hydrocinnamic acid). Further, in series [9] (liraglutide with the ionic liquid, intrajejunal injection, rats), the “fold improvement of liraglutide concentration over choline-citronellic acid” value was found to be 500 fold.
